Measured values as given in the supplement of paper PMC10307832.

Assays:
Test in all cases: relative viability (nuclei count vs DMSO), 5 days (fraction); higher = more cells survive
AT-7519 + Navitoclax = compound: O=C(NC1CCNCC1)c1n[nH]cc1NC(=O)c1c(Cl)cccc1Cl [AT-7519] + CC1(C)CCC(c2ccc(Cl)cc2)=C(CN2CCN(c3ccc(C(=O)NS(=O)(=O)c4ccc(N[C@H](CCN5CCOCC5)CSc5ccccc5)c(S(=O)(=O)C(F)(F)F)c4)cc3)CC2)C1 [Navitoclax] (partner 0.5 µM)
Summary of the method: (§1)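 Five library-drug doses in √10 steps were combined with a fixed anchor-drug dose, or a single drug was given alone, by pin tool to lung cancer cell lines in 1536-well plates the day after seeding. Nuclei were stained and counted after 5 days. Relative viability is the nuclei count in treated wells over that in vehicle wells, taken as the median of duplicate plates.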

AT-7519 + Pemetrexed = compound: O=C(NC1CCNCC1)c1n[nH]cc1NC(=O)c1c(Cl)cccc1Cl [AT-7519] + Nc1nc2[nH]cc(CCc3ccc(C(=O)N[C@@H](CCC(=O)O)C(=O)O)cc3)c2c(=O)[nH]1 [Pemetrexed] (partner 0.2 µM)
Summary of the method: as §1

[1] = compound: C1=CC2=C(C=C(C(=C2N=C1)O)N=NC3=CC4=C(C=C3)C=C(C=C4)S(=O)(=O)O)S(=O)(=O)O + Cc1cc(Nc2cc(N3CCN(C)CC3)nc(Sc3ccc(NC(=O)C4CC4)cc3)n2)n[nH]1 [Tozasertib] (partner 0.1 µM)
Summary of the method: as §1

AT-7519 + Crizotinib = compound: O=C(NC1CCNCC1)c1n[nH]cc1NC(=O)c1c(Cl)cccc1Cl [AT-7519] + C[C@@H](Oc1cc(-c2cnn(C3CCNCC3)c2)cnc1N)c1c(Cl)ccc(F)c1Cl [Crizotinib] (partner 1 µM)
Summary of the method: as §1

Cell Line	relative viability (AT-7519 + Navitoclax; first compound 0.01 µM)	relative viability (AT-7519 + Navitoclax; first compound 0.03162 µM)	relative viability (AT-7519 + Navitoclax; first compound 0.3162 µM)	relative viability (AT-7519 + Navitoclax; first compound 1 µM)	relative viability (AT-7519 + Pemetrexed; first compound 0.01 µM)	relative viability (AT-7519 + Pemetrexed; first compound 0.03162 µM)	relative viability (AT-7519 + Pemetrexed; first compound 0.3162 µM)	relative viability (AT-7519 + Pemetrexed; first compound 1 µM)	relative viability ([1]; first compound 0.08 µM)	relative viability ([1]; first compound 0.253 µM)	relative viability ([1]; first compound 0.8 µM)	relative viability ([1]; first compound 2.53 µM)	relative viability ([1]; first compound 8 µM)	relative viability (AT-7519 + Crizotinib; first compound 0.01 µM)	relative viability (AT-7519 + Crizotinib; first compound 0.03162 µM)	relative viability (AT-7519 + Crizotinib; first compound 0.3162 µM)	relative viability (AT-7519 + Crizotinib; first compound 1 µM)
NCI-H520	1.14	0.991	0.986	0.605	0.815	0.635	0.619	0.389	0.428	0.454	0.439	0.369	0.42	0.753	0.768	0.595	0.269
NCI-H1755	1.05	0.983	1.02	0.986	0.413	0.461	0.566	0.442	0.608	0.539	0.555	0.615	0.577	0.837	1.03	0.935	0.688
NCI-H2023	1.1	0.938	0.847	0.323	0.203	0.233	0.203	0.111	0.398	0.311	0.411	0.347	0.36	0.702	0.697	0.605	0.125
NCI-H2009	1.19	1.19	1.19	0.96	1.11	0.932	1.08	0.869	0.766	0.756	0.741	0.842	0.562	1.21	1.07	1.12	0.295
